For the assay, the target named is T1, BTLA/HVEM complex (Homo sapiens, UniProt Q92956).
T1 construct: purchased ACROBiosystems HVM-H52E9 (HVEM-His); BTA-H5255 (BTLA-Fc)
T1 sequence (Q92956 39-202 limits assumed): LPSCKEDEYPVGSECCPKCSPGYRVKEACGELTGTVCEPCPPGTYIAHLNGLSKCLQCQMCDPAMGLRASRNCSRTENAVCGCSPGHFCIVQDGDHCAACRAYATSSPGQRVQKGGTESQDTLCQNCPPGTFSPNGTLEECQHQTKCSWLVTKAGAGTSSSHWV
Description: ELISA inhibition of BTLA/HVEM complex formation. It is filed as biochemical. As to conditions: immobilized HVEM-His, BTLA-Fc 5 μg/mL, PBS-T, 37 °C, mean of three independent experiments; for inhibition at 16.67 µM: peptide 16.67 μM; for inhibition at 50 µM: peptide 50 μM; for inhibition at 150 µM: peptide 150 μM. As to the method:
In the subsequent stage of the study, the potential of the obtained compounds to inhibit the interaction between BTLA and HVEM proteins was evaluated using ELISA, following the methodology described in our previous studies. , HVEM was immobilized on the plate and incubated with peptides at three different concentrations, followed by the addition of Fc-tagged BTLA. Detection was carried out using horseradish peroxidase (HRP) conjugated with anti-human IgG and 3,3′,5,5′-tetramethylbenzidine (TMB) as a substrate. Signal intensity was directly proportional to the amount of BTLA bound to HVEM and inversely proportional to the inhibitory activity of the tested peptides. As a control, BTLA and HVEM were incubated in the absence of peptides.
Recombinant human HVEM protein with a His tag was purchased from ACROBiosystems, Newark, DE, USA (no. HVM-H52E9). Recombinant human protein BTLA-Fc and LIGHT-Fc were also purchased from ACROBiosystems, Newark, DE, USA (no. BTA-H5255 and no. LIT-H5269).
ELISA was performed using transparent 96-well NUNC Maxisorp plates (Thermo Fisher Scientific, Waltham, MA, USA). In the first step, HVEM-His, dissolved in PBS at a concentration of 5 μg/mL (100 μL/well), was immobilized on the plate by overnight incubation at 4 °C. Wells were then blocked with 5% bovine serum albumin (BSA) in PBS containing 0.05% Tween 20 (PBS-T) (200 μL/well). Next, peptides dissolved in PBS-T at concentrations of 150, 50, and 16.67 μM were added to the wells (100 μL/well). Following this, BTLA-Fc in PBS-T at a concentration of 5 μg/mL (100 μL/well) was applied. In the next step, goat anti-human IgG antibody conjugated with the HRP (Bio-Rad Laboratories, Hercules, CA, USA) in PBS-T at a ratio of 1:30,000 (v/v) was added (100 μL/well). Colorimetric detection was performed by adding 100 μL of TMB substrate (Thermo Fisher Scientific, Waltham, MA, USA) to each well and incubating the plate in the dark. At each stage, plates were incubated at 37 °C with continuous shaking for 1 h (except TMB, which was incubated for 15 min). After each incubation, wells were washed five times with PBS-T. Absorbance was measured using an Infinite M200 Pro Reader (Tecan Group Ltd., Männedorf, Switzerland) at wavelengths of 650 nm (measurement wavelength) and 492 nm (reference wavelength). Inhibition assays for the HVEM/LIGHT complex were conducted using the same approach, except that LIGHT was used instead of BTLA. The BTLA/HVEM and HVEM/LIGHT complexes without peptides served as controls. Inhibition percentages were calculated based on the assumption that PBS-T has no effect on the formation of BTLA/HVEM or HVEM/LIGHT complexes. Each ELISA was conducted in at least three independent replicates. The data were analyzed using GraphPad Prism 8 software (San Diego, CA, USA).
(An ELISA detects its analyte on a solid surface through an enzyme-linked reagent.)

Where a SMILES comes first, the peptide text is derived from it.

As a reminder, the inhibition is the relative decrease from the control value, in per cent.

In the case of `CC[C@H](NC(=O)[C@H](CC)NC(=O)[C@H](CCC(N)=O)NC(=O)[C@H](Cc1ccc(O)cc1)NC(C)=O)C(=O)N[C@@H](C)C(=O)N[C@@H](CCCNC(=N)N)C(=O)N[C@@H](CO)C(=O)N[C@@H](CCC(N)=O)C(=O)N[C@@H](CCCCN)C(=O)N[C@@H](CO)C(=O)NCC(=O)N[C@H](C(=O)N[C@@H](CCCNC(=N)N)C(=O)N[C@@H](CC(C)C)C(=O)N[C@@H](CCC(N)=O)C(=O)NCC(=O)N[C@@H](Cc1c[nH]cn1)C(=O)N[C@@H](Cc1ccccc1)C(=O)N[C@@H](Cc1ccccc1)C(N)=O)[C@@H](C)CC` [A1, CD160(110–128)^(C112X,C113X)] (HELM PEPTIDE1{[ac].Y.Q.[Abu].[Abu].A.R.S.Q.K.S.G.I.R.L.Q.G.H.F.F.[am]}$$$$V2.0), the inhibition at 16.67 µM came to 4.31%, the inhibition at 50 µM amounted to 6.28% and the inhibition at 150 µM stood at 7.44%.

For `CC[C@@H]1NC(=O)[C@H](CC)NC(=O)[C@@H](NC(=O)[C@H](Cc2ccc(O)cc2)NC(C)=O)CSSC[C@@H](C(=O)N[C@@H](Cc2ccccc2)C(N)=O)NC(=O)[C@H](Cc2c[nH]cn2)NC(=O)CNC(=O)[C@H](CCC(N)=O)NC(=O)[C@H](CC(C)C)NC(=O)[C@H](CCCNC(=N)N)NC(=O)[C@H]([C@@H](C)CC)NC(=O)CNC(=O)[C@H](CO)NC(=O)[C@H](CCCCN)NC(=O)[C@H](CCC(N)=O)NC(=O)[C@H](CO)NC(=O)[C@H](CCCNC(=N)N)NC(=O)[C@H](C)NC1=O` [A2, CD160(110–128)^(Q111C,C112X,C113X,F127C)] (HELM PEPTIDE1{[ac].Y.C.[Abu].[Abu].A.R.S.Q.K.S.G.I.R.L.Q.G.H.C.F.[am]}$PEPTIDE1,PEPTIDE1,3:R3-19:R3$$$V2.0), the inhibition at 16.67 µM is 1.45%, the inhibition at 50 µM was determined as 3% and the inhibition at 150 µM was determined as 2.26%.

On to `CC[C@H](NC(=O)[C@H](CCC(N)=O)NC(=O)[C@H](Cc1ccc(O)cc1)NC(C)=O)C(=O)N[C@H]1CSSC[C@@H](C(=O)NCC(=O)N[C@@H](Cc2c[nH]cn2)C(=O)N[C@@H](Cc2ccccc2)C(=O)N[C@@H](Cc2ccccc2)C(N)=O)NC(=O)[C@H](CC(C)C)NC(=O)[C@H](CCCNC(=N)N)NC(=O)[C@H]([C@@H](C)CC)NC(=O)CNC(=O)[C@H](CO)NC(=O)[C@H](CCCCN)NC(=O)[C@H](CCC(N)=O)NC(=O)[C@H](CO)NC(=O)[C@H](CCCNC(=N)N)NC(=O)[C@H](C)NC1=O` [A3, CD160(110–128)^(C112X,Q124C)] (HELM PEPTIDE1{[ac].Y.Q.[Abu].C.A.R.S.Q.K.S.G.I.R.L.C.G.H.F.F.[am]}$PEPTIDE1,PEPTIDE1,5:R3-16:R3$$$V2.0), for which the inhibition at 16.67 µM was -0.96%, the inhibition at 50 µM is -0.72% and the inhibition at 150 µM is 3.85%.

For the compound `CC[C@H](NC(=O)[C@H](CCC(N)=O)NC(=O)[C@H](Cc1ccc(O)cc1)NC(C)=O)C(=O)N[C@@H](CC)C(=O)N[C@H]1CSSC[C@@H](C(=O)N[C@@H](CCC(N)=O)C(=O)NCC(=O)N[C@@H](Cc2c[nH]cn2)C(=O)N[C@@H](Cc2ccccc2)C(=O)N[C@@H](Cc2ccccc2)C(N)=O)NC(=O)[C@H](CCCNC(=N)N)NC(=O)[C@H]([C@@H](C)CC)NC(=O)CNC(=O)[C@H](CO)NC(=O)[C@H](CCCCN)NC(=O)[C@H](CCC(N)=O)NC(=O)[C@H](CO)NC(=O)[C@H](CCCNC(=N)N)NC1=O` [A4, CD160(110–128)^(C112X,C113X,A114C,L123C)] (HELM PEPTIDE1{[ac].Y.Q.[Abu].[Abu].C.R.S.Q.K.S.G.I.R.C.Q.G.H.F.F.[am]}$PEPTIDE1,PEPTIDE1,6:R3-15:R3$$$V2.0), the inhibition at 16.67 µM was -2.23%, the inhibition at 50 µM was -0.34% and the inhibition at 150 µM is -1.77%.

As for `CC[C@H](NC(=O)[C@H](CC(C)C)NC(=O)[C@H](Cc1ccccc1)NC(=O)[C@@H](NC(=O)[C@@H](NC(=O)[C@H](Cc1ccccc1)NC(C)=O)C(C)C)C(C)C)C(=O)N[C@@H](CCCCN)C(=O)N[C@@H](CC(=O)O)C(=O)N[C@@H](CCCNC(=N)N)C(=O)N[C@@H](CO)C(=O)NCC(=O)N[C@@H](CC(=O)O)C(=O)N[C@@H](CC)C(=O)N[C@@H](CO)C(=O)N1CCC[C@H]1C(=O)N[C@@H](CCC(=O)O)C(=O)N[C@H](C(=O)N[C@@H](CO)C(=O)N[C@@H](CC(C)C)C(=O)N[C@@H](CCCCN)C(=O)N[C@@H](CCC(N)=O)C(=O)N[C@@H](CC(C)C)C(=O)N[C@@H](CCCNC(=N)N)C(=O)N[C@@H](CC(C)C)C(N)=O)[C@@H](C)O` [B1, CD160(56–79)^(C61X,C68X)] (HELM PEPTIDE1{[ac].F.V.V.F.L.[Abu].K.D.R.S.G.D.[Abu].S.P.E.T.S.L.K.Q.L.R.L.[am]}$$$$V2.0), the inhibition at 16.67 µM is 1.49% and the inhibition at 50 µM amounted to 4.68%.

As for `CC[C@@H]1NC(=O)[C@@H](NC(=O)[C@H](Cc2ccccc2)NC(=O)[C@@H](NC(=O)[C@@H](NC(=O)[C@H](Cc2ccccc2)NC(C)=O)C(C)C)C(C)C)CSSC[C@@H](C(=O)N[C@@H](CCCCN)C(=O)N[C@@H](CCC(N)=O)C(=O)N[C@@H](CC(C)C)C(=O)N[C@@H](CCCNC(=N)N)C(=O)N[C@@H](CC(C)C)C(N)=O)NC(=O)[C@H](CO)NC(=O)[C@H]([C@@H](C)O)NC(=O)[C@H](CCC(=O)O)NC(=O)[C@@H]2CCCN2C(=O)[C@H](CO)NC(=O)[C@H](CC)NC(=O)[C@H](CC(=O)O)NC(=O)CNC(=O)[C@H](CO)NC(=O)[C@H](CCCNC(=N)N)NC(=O)[C@H](CC(=O)O)NC(=O)[C@H](CCCCN)NC1=O` [B3, CD160(56–79) ^(L60C,C61X,C68X,L74C)] (HELM PEPTIDE1{[ac].F.V.V.F.C.[Abu].K.D.R.S.G.D.[Abu].S.P.E.T.S.C.K.Q.L.R.L.[am]}$PEPTIDE1,PEPTIDE1,6:R3-20:R3$$$V2.0), the inhibition at 16.67 µM was -4.44%, the inhibition at 50 µM was -5.5% and the inhibition at 150 µM was -4.74%.

For `CC[C@@H]1NC(=O)[C@H](CC(C)C)NC(=O)[C@@H](NC(=O)[C@@H](NC(=O)[C@@H](NC(=O)[C@H](Cc2ccccc2)NC(C)=O)C(C)C)C(C)C)CSSC[C@@H](C(=O)N[C@@H](CC(C)C)C(=O)N[C@@H](CCCNC(=N)N)C(=O)N[C@@H](CC(C)C)C(N)=O)NC(=O)[C@H](CCCCN)NC(=O)[C@H](CC(C)C)NC(=O)[C@H](CO)NC(=O)[C@H]([C@@H](C)O)NC(=O)[C@H](CCC(=O)O)NC(=O)[C@@H]2CCCN2C(=O)[C@H](CO)NC(=O)[C@H](CC)NC(=O)[C@H](CC(=O)O)NC(=O)CNC(=O)[C@H](CO)NC(=O)[C@H](CCCNC(=N)N)NC(=O)[C@H](CC(=O)O)NC(=O)[C@H](CCCCN)NC1=O` [B4, CD160(56–79)^(F59C,C61X,C68X,Q76C)] (HELM PEPTIDE1{[ac].F.V.V.C.L.[Abu].K.D.R.S.G.D.[Abu].S.P.E.T.S.L.K.C.L.R.L.[am]}$PEPTIDE1,PEPTIDE1,5:R3-22:R3$$$V2.0), the inhibition at 16.67 µM was -4.42%, the inhibition at 50 µM was determined as 0.29% and the inhibition at 150 µM was 9.93%.

As for `CC[C@H](NC(=O)[C@H](CC(C)C)NC(=O)[C@H](Cc1ccccc1)NC(C)=O)C(=O)N[C@@H](CCCCN)C(=O)N[C@@H](CC(=O)O)C(=O)N[C@@H](CCCNC(=N)N)C(=O)N[C@@H](CO)C(=O)NCC(=O)N[C@@H](CC(=O)O)C(=O)N[C@@H](CC)C(=O)N[C@@H](CO)C(=O)N1CCC[C@H]1C(=O)N[C@@H](CCC(=O)O)C(=O)N[C@H](C(=O)N[C@@H](CO)C(=O)N[C@@H](CC(C)C)C(=O)N[C@@H](CCCCN)C(N)=O)[C@@H](C)O` [C1, CD160(59–75)^(C61X,C68X)] (HELM PEPTIDE1{[ac].F.L.[Abu].K.D.R.S.G.D.[Abu].S.P.E.T.S.L.K.[am]}$$$$V2.0), the inhibition at 16.67 µM was found to be 4.03%, the inhibition at 50 µM amounted to 2.63% and the inhibition at 150 µM was 1.99%.

These data come from paper PMC12714101, “CD160-Derived Peptide as a Bidirectional Inhibitor Toward Immune Checkpoints BTLA/HVEM and HVEM/LIGHT” (Journal of Medicinal Chemistry, 2025).
